Numbers after ± are expanded uncertainties.
Key:
[1] = refractive index (Na D-line) (dimensionless); conditions: 298.15 K; 101 kPa; Liquid; Standard Abbe refractometry
[2] = 298.15 K; 101 kPa; Liquid; Vibrating tube method

Compound	refractive index [1]	mass density [2]
CCO [ethanol]	1.35936 ± 0.00037	785.9 ± 0.2 kg/m3
CCCC[N+](C)(C)C.O=S(=O)([N-]S(=O)(=O)C(F)(F)F)C(F)(F)F [butyltrimethylammonium bis(trifluoromethylsulfonyl)imide]	1.40806 ± 0.00031	1393 ± 0.2 kg/m3
CO [methanol]	1.32636 ± 0.00037	786.9 ± 0.2 kg/m3
CCCCCC [hexane]	1.37241 ± 0.00037	655.2 ± 0.3 kg/m3
CCCC[N+](C)(CCCC)CCCC.O=S(=O)([N-]S(=O)(=O)C(F)(F)F)C(F)(F)F [tributylmethylammonium bis((trifluoromethyl)sulfonyl)imide]	1.42614 ± 0.00032	1261.3 ± 0.2 kg/m3
CCCCCCC [heptane]	1.38529 ± 0.00037	679.6 ± 0.3 kg/m3

Source: the NIST ThermoML archive (doi:10.1016/j.jct.2013.08.023)
